Experimental data taken from patent US20140328918A1, “METHODS OF TREATING A SUBJECT AND RELATED PARTICLES, POLYMERS AND COMPOSITIONS” (CERULEAN PHARMA INC., priority 2010, published 2014).
Several values for one entry are separate records, joined by “and”; a condition that tells them apart may be missing. Identical values can stand only once. Like-named read-outs stand apart in the source and are kept apart here.

What was measured:
[1] = system: B16.F10 cells; test: Efficacy of docetaxel-2′-alanine-glycolate and -2′-glycine-5050 PLGA-O-acetyl nanoparticles in mouse melanoma model B16.F10 (Example 87); type: in vivo, male C57BL/6 mice; conditions: 1/wk×3
Protocol: B16.F10 cells were grown in culture to 85-90% confluency in MEM-alpha medium supplemented with fetal bovine serum (FBS) and 1% penicillin/streptomycin. Cells were removed from the flask using 0.05% trypsin (passage=4), re-suspended in PBS (density=10×10^6 cells/mL) and were implanted subcutaneously (1×10^6 cells in 100 μL PBS/mouse) into the right flank of male C57BL/6 mice on day 1.
(§1) The treatments were administered IV into the tail vein at a dose volume of 10 ml/kg, beginning on post-implantation day 5, when the mean tumor volume was ca. 60 mm^3. Animals were monitored for any morbidity and adverse effects three times a week. In addition, body weight and tumor volume were also measured three times a week.
Tumor volume was calculated with (width×width×length)/2 mm^3 formula. Efficacy was determined by tumor growth inhibition (TGI), tumor growth delay (TGD) and survival. Tumor growth inhibition (TGI) is represented as % and calculated as (1−(treated tumor volume/control tumor volume))×100 when the control group mean tumor volume reached ≧3000 mm^3. Tumor growth delay (TGD) is calculated by subtracting the day when the vehicle treated group reached the maximum tumor size 3000 mm^3 from the day when the treatment group tumor size reached 3000 mm^3. The criterion at which a mouse was removed from the study was tumor volume≧3000 mm^3

[2] = Tolerability in mouse melanoma model B16.F10 (Example 87); type: in vivo, male C57BL/6 mice; conditions: 1/wk×3
Protocol: as §1

[3] = Tolerability in H1299 model (Example 86); type: in vivo, male nu/nu mice
Protocol: (§2) The treatments were administered IV into the tail vein at a dose volume of 10 and 20 mL/kg for 30 and 60 mg/kg respectively, beginning on post-implantation day 30 when the mean tumor volume was ca. 170 mm^3 (small tumor group), and on day 37 when the mean tumor volume was ca. 440 mm^3 (large tumor group). Body weight and tumor volume were measured for three times a week during the dosing period and twice a week thereafter. In addition, animals were also monitored for any morbidity and adverse effects for three times a week during the dosing period and twice a week thereafter.
(§3) Tumor volume was calculated with (width×width×length)/2 mm^3 formula. Efficacy was determined by tumor growth inhibition (TGI), tumor growth delay (TGD) and survival. Tumor growth inhibition (TGI) is represented as % and calculated as (1−(treated tumor volume/control tumor volume))×100 when the control group mean tumor volume reached ≧1000 mm^3. Tumor growth delay (TGD) is calculated by subtracting the day when the vehicle treated group reached the maximum tumor size 1000 mm^3 from the day when the treatment group tumor size reached 1000 mm^3.

[4] = system: B16.F10 cells; test: Efficacy of docetaxel-2′-5050 PLGA-O-acetyl nanoparticles in mouse melanoma model B16.F10 (Example 84); type: in vivo, male C57BL/6 mice; conditions: 30 mg/kg, 1/wk×3
Protocol: B16.F10 cells were grown in culture to 85-90% confluency in MEM-alpha medium supplemented with 10% fetal bovine serum (FBS) and 1% penicillin/streptomycin. Cells were removed from the culture flask using 0.05% trypsin (passage=4), re-suspended in PBS (density=10×10^6 cells/mL) and were implanted subcutaneously (1×10^6 cells in 100 μL MEM-alpha medium/mouse) into the right flank of male C57BL/6 mice on day 1.
(§4) The treatments were administered IV into the tail vein at a dose volume of 10 and 15 ml/kg for a corresponding dose of 30 mg/kg and 45 mg/kg respectively, beginning on post-implantation day 5, when the mean tumor volume was ca. 60 mm^3 Body weight and tumor volume were measured three times a week. In addition, animals were also monitored for any morbidity and adverse effects three times a week.
Tumor volume was calculated with (width×width×length)/2 mm^3 formula. Efficacy was determined by tumor growth inhibition (TGI), tumor growth delay (TGD) and survival. Tumor growth inhibition (TGI) is represented as % and calculated as (1−(treated tumor volume/control tumor volume))×100 when the control group mean tumor volume reached ≧3000 mm^3. Tumor growth delay (TGD) is calculated by subtracting the day when the vehicle treated group reached the maximum tumor size 3000 mm^3 from the day when the treatment group tumor size reached 3000 mm^3. […]

[5] = Tolerability in normal non-tumor-bearing mice: body weight, CBC, serum chemistry, ataxia, sciatic nerve histopathology (Example 83); type: in vivo, male C57BL/6 mice
Protocol: Treatments were administered intravenously on a q7d×2 schedule, i.e., two treatments seven days apart (the first treatment was on Day one). The study ended on Day 14, six days after the 2nd treatment. Blood was collected for complete blood count (CBC) and serum chemistry. Leg muscles were collected so that nerve degeneration could be assessed from the sciatic nerve.

[6] = Body weight and ataxia in MDA-MB-435 tumor-bearing mice (Example 82); type: in vivo, female CD-1 nude mice; conditions: for body weight loss: weekly×two injections
Protocol: The treatments were administered IV into the tail vein at the dose volumes stated above, beginning on post-implantation Day 21, when the mean tumor volume was 150 mm^3 or, for one group, on Day 37, when the mean tumor volume for that group was 433 mm^3.

[7] = Tolerability in mouse melanoma model B16.F10 (Example 84); type: in vivo, male C57BL/6 mice; conditions: 30 mg/kg, 1/wk×3
Protocol: as §4

[8] = system: ADR-RES cells; test: Efficacy in docetaxel resistant model ADR-RES (Example 85); type: in vivo, female nu/nu mice
Protocol: ADR-RES cells were grown in culture to 85-90% confluency in RPMI medium supplemented with 10% fetal bovine serum (FBS), 1% glutamine and 1% penicillin/streptomycin.
(§5) The treatments were administered IV into the tail vein at a dose volume of 10 and 20 mL/kg for 30 and 60 mg/kg respectively, beginning on post-implantation day 47, when the mean tumor volume was ca. 150 mm^3 Body weight and tumor volume were measured for three times a week during the dosing period and twice a week thereafter. In addition, animals were also monitored for any morbidity and adverse effects for three times a week during the dosing period and twice a week thereafter.
Tumor volume was calculated with (width×width×length)/2 mm^3 formula. Efficacy was determined by tumor growth inhibition (TGI), tumor growth delay (TGD) and survival. Tumor growth inhibition (TGI) is represented as % and calculated as (1−(treated tumor volume/control tumor volume))×100 when the control group mean tumor volume reached ≧1000 mm^3 Tumor growth delay (TGD) is calculated by subtracting the day when the vehicle treated group reached the maximum tumor size 1000 mm^3 from the day when the treatment group tumor size reached 1000 mm^3.

[9] = system: H1299 cells; test: Efficacy in non-small cell lung carcinoma model H1299 (Example 86); type: in vivo, male nu/nu mice; conditions: 30 mg/kg
Protocol: H1299 cells were grown in culture to 85-90% confluency in RPMI medium supplemented with 10% fetal bovine serum (FBS), 1% glutamine and 1% penicillin/streptomycin. Cells were removed from the culture flask using 0.05% trypsin (passage=4), re-suspended in RPMI medium (density=50×10^6 cells/mL) and were implanted subcutaneously (5×10^6 cells in 100 μL RPMI medium/mouse) into the mammary fat pad area of male nu/nu mice on day 1.
as §2, §3

[10] = Tolerability in ADR-RES model (Example 85); type: in vivo, female nu/nu mice
Protocol: as §5

[11] = Lyophilization and reconstitution of PEGylated nanoparticles: appearance and particle size (Zetasizer); type: physicochemical; conditions: PLGA7K-PVA-PEG2K-30 and PLGA7K-PVA-PEG5K-30 PEGylated nanoparticle formulations, lyoprotectant/nanoparticle weight ratio 1:1
Excerpt: Nanoparticles comprising therapeutic agents were lyophilized using three different techniques. The first technique was a simple freeze drying technique where the liquid formulations were frozen with liquid nitrogen followed by drying under vacuum overnight at room temperature. During this simple lyophilization technique a Labconco® freeze dryer (available from Labconco Corp. of Kansas City, Mo.) was used. […] Instead of conventional multi-step ramping and holding, one step slow ramping was used in this approach.
Both the rapid cycle and conventional cycle lyophilization reactions were performed using a VirTis advantage freeze dryer.
A lyoprotectant screen was performed as follows. The critical point for design of a lyophilization cycle was to keep the temperature below the glass transition temperature (Tg′) of the lyoprotectant during the primary drying stage.
In this example, a new strategy of using cyclodextrins and their derivatives as a cryoprotectant was tested.
PEGylated nanoparticle formulations were analyzed for nanoparticle size prior to lyophilization, and lyophilized preparations that were completely resuspended by hand shaking were analyzed for nanoparticle size with a Zetasizer particle sizer. […] Prior to lyophilization, lyoprotectants and non-cyclic carbohydrates were added to PEGylated nanoparticle formulations at different weight ratios.

[12] = Stability of 1H NMR sample stored at ambient temperature; type: physicochemical; conditions: 4 days
Protocol: Docetaxel-2′-aminoethyldithioethyl carbonate.DCA [2.77 g] was dissolved in DCM (100 mL) to produce a clear solution. It was washed with saturated NaHCO3 (2×40 mL). The organic layer was separated, dried over sodium sulfate and filtered. The filtrate was concentrated to ˜10 mL, to which heptanes (100 mL) was slowly added resulting in a suspension. It was stirred for 0.5 h and filtered (30 mL heptanes wash). The filter cake was vacuum-dried at ambient temperature for 16 h to afford the free base of CPX1231 [2.17 g, yield: 88%].

[13] = Body weight changes in A2780 tumor-bearing mice (Example 78); type: in vivo, female CD-1 nude mice; conditions: Day 36
Protocol: The stock solution was diluted further with PBS to 1.5 mg/mL (for a dose of 15 mg/kg at 10 mL/kg and 30 mg/kg at 20 mL/kg). This formulation was made within 30 minutes of administration to mice.
The treatments were administered 2 times, on Day 8 and Day 15 (weekly×2 injections) for n=8 mice per group. […] On Day 50, the study was ended for all remaining mice. When removed from the study, mice were euthanized by CO2 inhalation.

[14] = mouse, in vivo
Protocol: The stock solution was diluted further with PBS to 0.6, 1.5, 3, 4.5 and 6 mg/mL (for a corresponding dose of 6, 15, 30, 45 and 60 mg/kg) so that all the groups received the same amount of ethanol, polysorbate 80, water and PBS. […] 5) PEGylated O-acetyl-5050-PLGA nanoparticle vehicle at the highest concentration of 6 mg/mL.
The treatments were administered IV into the tail vein at a dose volume of 10 mL/kg, beginning on post-implantation Day 5, when the mean tumor volume was 55 mm^3. The treatments were administered 4 times, on Days 5, 8, 12 and 15 (biweekly×4 injections). On Day 17 post-tumor implantation, mice were euthanized by CO2 inhalation according to the procedure guideline. Blood was collected by cardiac puncture and put into ethylenediaminetetraacetic acid (EDTA) or serum separation blood collection tubes. Whole blood was analyzed on the day of collection for CBC analyses. After the blood clotted and was centrifuged, serum was frozen immediately on dry ice for serum chemistry analyses.
Tolerability was determined by changes in body weight, expressed as a percent of the initial body weight on post-implantation Day 5. […] Other indices of toxicity, complete blood count (CBC) and serum chemistry were determined from blood collected from animals that were euthanized on Day 17 by CO2 inhalation, according to the procedure guideline.

[15] = Body weight and ataxia in SK-OV-3 tumor-bearing mice (Example 81); type: in vivo, female CD-1 nude mice; conditions: 60 mg/kg, weekly×two injections
[16] = system: B16.F10 cells; test: Efficacy of PEGylated docetaxel-5050 PLGA-O-acetyl nanoparticles (2k/5k mPEG-PLGA), B16.F10 murine melanoma (Example 79); type: in vivo, male C57BL/6 mice; conditions: q7dx3, 30 mg/kg
Protocol: Refer to table for detailed description of formulations.
Tumor volume was calculated with the following equation: (width×width×length)/2 mm^3.

[17] = system: B 16.F10 cells; test: CellTiter-Glo cytotoxicity of nanoparticles formed from CDP-linker-docetaxel compounds (Example 131); type: cell-based, mouse; conditions: CellTiter-Glo, 24, 48 and 72 hours of incubation
Protocol: To measure the cytotoxic effect of CDP-linker-docetaxel compounds, the CellTiter-Glo Luminescent Cell Viability Assay (CTG) was used. […] B 16.F10 cells, grown to 85-90% confluency in 150 cm2 flasks (passage<30), were resuspended in media (MEM-alpha, 10% HI-FBS, 1× antibiotic-antimycotic solution) and added to 96-well opaque-clear bottom plates at a concentration of 1500 cells/well in 200 μL/well. The cells were incubated at 37° C. with 5% CO2 for 24 hours. The following day, serial dilutions of 2× concentrated particles and 2× concentrated free drug were made in 12-well reservoirs with media to specified concentrations. The media in the plates was replaced with 100 μL of fresh media and 100 μL of the corresponding serially diluted drug. Three sets of plates were prepared with duplicate treatments. Following 24, 48 and 72 hours of incubation at 37° C. with 5% CO2, the media in the plates was replaced with 100 μL of fresh media and 100 μL of CTG solution, and then incubated for 5 minutes on a plate shaker at room temperature set to 450 rpm and allowed to rest for 15 minutes. Viable cells were measured by luminescence using a microtiter plate reader. The data was plotted as % viability vs. concentration and standardized to untreated cells.

[18] = Particle properties (Zavg, PDI, Dv50, Dv90) by dynamic light scattering; type: physicochemical; conditions: polymer conjugate
Excerpt: Particle solution properties were characterized by dynamic light scattering (DLS) spectrometer.

CC(=O)O[C@@]12CO[C@@H]1C[C@H](O)[C@@]1(C)C(=O)[C@H](O)C3=C(C)[C@@H](OC(=O)[C@H](O)[C@@H](NC(=O)OC(C)(C)C)c4ccccc4)C[C@@](O)([C@@H](OC(=O)c4ccccc4)[C@H]21)C3(C)C [Free docetaxel, docetaxel]
survival on day 29 ([1]; 15 mg/kg): 50%
survival on day 43 ([1]; 15 mg/kg): 0%
survival on day 36 ([1]; 30 mg/kg): 50%
survival on day 40 ([1]; 30 mg/kg): 50%
survival on day 43 ([1]; 30 mg/kg): 0%
survival on day 45 ([1]; 30 mg/kg): 0%
Maximum body weight loss (%) ([2]; 15 mg/kg): 2%
Maximum body weight loss (%) ([2]; 30 mg/kg): 12% and 14%
Maximum body weight loss (%) ([3]; 30 mg/kg, 1/wk×2, large tumor group): 19%
Maximum body weight loss (%) ([3]; 30 mg/kg, 1/wk×2, small tumor group): 18%
body weight loss / hind limb paralysis ([3]; 30 mg/kg, large tumor group): did not cause any significant body weight loss or hind limb paralysis
body weight loss / hind limb paralysis ([3]; 30 mg/kg, small tumor group): did not cause any significant body weight loss or hind limb paralysis
body weight loss / hind limb paralysis ([3]; 60 mg/kg, large tumor group): significant body weight loss and severe hind limb paralysis following the second injection
body weight loss / hind limb paralysis ([3]; 60 mg/kg, small tumor group): significant body weight loss and severe hind limb paralysis following the second injection
survival on day 40 [4]: 50%
survival on day 45 [4]: 0%
serum chemistry parameters ([5]; q7d×2): did not affect any serum chemistry parameter at doses up to 60 mg/kg
Ataxia ([6]; 60 mg/kg): Ataxia was observed four days after the second treatment
Maximum body weight loss (%) [7]: 12%
survival on day 102 ([8]; 30 mg/kg, 1/biwk×3): 50%
survival on day 106 ([8]; 30 mg/kg, 1/wk×2): 50%
day mean tumor volume endpoint (≧1000 mm^3) reached ([8]; 60 mg/kg, 1/wk×2): 106 days
survival on day 106 ([8]; 60 mg/kg, 1/wk×2): 50%
survival on day 61 ([9]; large tumor group): 50%
survival on day 80 ([9]; large tumor group): 0%
survival on day 56 ([9]; small tumor group): 50%
survival on day 68 ([9]; small tumor group): 0%
Maximum body weight loss (%) ([10]; 30 mg/kg, 1/biwk×3): 9%
body weight loss / hind limb paralysis ([10]; 30 mg/kg, 1/biwk×3): did not cause any significant body weight loss (<10%) or hind limb paralysis
Maximum body weight loss (%) ([10]; 30 mg/kg, 1/wk×2): 6%
body weight loss / hind limb paralysis ([10]; 30 mg/kg, 1/wk×2): did not cause any significant body weight loss (<10%) or hind limb paralysis
Maximum body weight loss (%) ([10]; 60 mg/kg, 1/biwk×3): 21%
body weight loss / hind limb paralysis ([10]; 60 mg/kg, 1/biwk×3): severe hind limb paralysis following the third injection
Maximum body weight loss (%) ([10]; 60 mg/kg, 1/wk×2): 23%
body weight loss / hind limb paralysis ([10]; 60 mg/kg, 1/wk×2): hind limb paralysis after the 2nd injection followed by recovery

OC[C@@H](O)[C@@H](O)[C@H](O)[C@H](O)CO [Mannitol, mannitol]
maintenance of particle size after simple lyophilization [11]: None of mannitol, sucrose and trehalose worked at the same ratio

OC[C@H]1O[C@@](CO)(O[C@H]2O[C@H](CO)[C@@H](O)[C@H](O)[C@H]2O)[C@@H](O)[C@@H]1O [Sucrose, sucrose]
maintenance of particle size after simple lyophilization [11]: None of mannitol, sucrose and trehalose worked at the same ratio

OC[C@H]1O[C@H](O[C@H]2O[C@H](CO)[C@@H](O)[C@H](O)[C@H]2O)[C@H](O)[C@@H](O)[C@@H]1O [Trehalose, trehalose]
maintenance of particle size after simple lyophilization [11]: None of mannitol, sucrose and trehalose worked at the same ratio

CC(=O)O[C@@]12CO[C@@H]1C[C@H](O)[C@@]1(C)C(=O)[C@H](O)C3=C(C)[C@@H](OC(=O)[C@H](OC(=O)OCCSSCCN)[C@@H](NC(=O)OC(C)(C)C)c4ccccc4)C[C@@](O)([C@@H](OC(=O)c4ccccc4)[C@H]21)C3(C)C [docetaxel-2′-aminoethyldithioethyl carbonate]
degradation of 1H NMR sample [12]: no indication of degradation

CC(=O)O[C@@]12CO[C@@H]1C[C@H](O)[C@@]1(C)C(=O)[C@H](O)C3=C(C)[C@@H](OC(=O)[C@H](O)[C@@H](NC(=O)OC(C)(C)C)c4ccccc4)C[C@@](O)([C@@H](OC(=O)c4ccccc4)[C@H]21)C3(C)C [docetaxel]
% of the initial body weight ([13]; 15 mg/kg): 113±11%
% of the initial body weight ([13]; 30 mg/kg): 105±9%
serum chemistry parameters [14]: did not affect any serum chemistry parameter at doses up to 30 mg/kg
body weight above the initial on Day 14 ([5]; 30 mg/kg q7d×2): 3%
body weight above the initial on Day 14 ([5]; 45 mg/kg q7d×2): 2%
weight gained at the second treatment ([5]; 30 and 45 mg/kg q7d×2): up to 7%
body weight loss ([6]; 15 mg/kg): 10%
body weight loss ([6]; 30 mg/kg): 14%
Ataxia [15]: observed in all the mice four days after the second treatment
day average tumor volume reached the end point of 3000 mm^3 [16]: 37 days

OC[C@H]1O[C@@H]2O[C@H]3[C@H](O)[C@@H](O)[C@@H](O[C@H]4[C@H](O)[C@@H](O)[C@@H](O[C@H]5[C@H](O)[C@@H](O)[C@@H](O[C@H]6[C@H](O)[C@@H](O)[C@@H](O[C@H]7[C@H](O)[C@@H](O)[C@@H](O[C@H]1[C@H](O)[C@H]2O)O[C@@H]7CO)O[C@@H]6CO)O[C@@H]5CO)O[C@@H]4CO)O[C@@H]3CO [α-CD, α cyclodextrin]
maintenance of particle size after simple lyophilization [11]: also worked at the same weight ratio

OC[C@H]1O[C@@H]2O[C@H]3[C@H](O)[C@@H](O)[C@@H](O[C@H]4[C@H](O)[C@@H](O)[C@@H](O[C@H]5[C@H](O)[C@@H](O)[C@@H](O[C@H]6[C@H](O)[C@@H](O)[C@@H](O[C@H]7[C@H](O)[C@@H](O)[C@@H](O[C@H]8[C@H](O)[C@@H](O)[C@@H](O[C@H]9[C@H](O)[C@@H](O)[C@@H](O[C@H]1[C@H](O)[C@H]2O)O[C@@H]9CO)O[C@@H]8CO)O[C@@H]7CO)O[C@@H]6CO)O[C@@H]5CO)O[C@@H]4CO)O[C@@H]3CO [γ-CD, γ cyclodextrin]
maintenance of particle size after simple lyophilization [11]: also worked at the same weight ratio

CDP-2′-glycine-docetaxel
IC50 [17]: 1.2 to 3.7 nM

CDP-Alanine Glycolate-Docetaxel
IC50 [17]: 0.4 to 2 nM

CDP-Gly-SN-38
particle size [18]: 27.9 nm

CDP-dithiolethyloxy-carbonate-docetaxel
IC50 [17]: 23 nM

CDP-hexanoate-docetaxel [CDP-hexanoate-docetaxel nanoparticles]
IC50 [17]: 325 to 440 nM
